Measurements from EPA's CvTdb concentration-time database.

Tests used:
Experiment in all cases: concentration in plasma after dosing
Rat [1] = settings: 8 h; dosed: Oxymetholone; 120 mg/kg; oral; Male; F344/N
Rat [2] = settings: 4 h; dosed: Oxymetholone; 120 mg/kg; oral; Male; F344/N
Rat [3] = settings: 1 h; dosed: Oxymetholone; 20 mg/kg; iv; Male; F344/N
Rat [4] = settings: 20 min; dosed: Oxymetholone; 20 mg/kg; iv; Male; F344/N
Rat [5] = settings: 2 h; dosed: Oxymetholone; 30 mg/kg; oral; Male; F344/N
Rat [6] = settings: 40 min; dosed: Oxymetholone; 30 mg/kg; oral; Male; F344/N
Rat [7] = settings: 4 h; dosed: Oxymetholone; 30 mg/kg; oral; Male; F344/N
Rat [8] = settings: 3 h; dosed: Oxymetholone; 120 mg/kg; oral; Male; F344/N
Rat [9] = settings: 40 min; dosed: Oxymetholone; 120 mg/kg; oral; Male; F344/N
Rat [10] = settings: 40 min; dosed: Oxymetholone; 30 mg/kg; oral; Male; F344/N; remark: listed apart in the source
Rat [11] = settings: 40 min; dosed: Oxymetholone; 120 mg/kg; oral; Male; F344/N; remark: listed apart in the source
Rat [12] = settings: 4 h; dosed: Oxymetholone; 30 mg/kg; oral; Male; F344/N; remark: listed apart in the source
Rat [13] = settings: 10 min; dosed: Oxymetholone; 120 mg/kg; oral; Male; F344/N
Rat [14] = settings: 0.5 h; dosed: Oxymetholone; 20 mg/kg; iv; Male; F344/N
Rat [15] = settings: 5 min; dosed: Oxymetholone; 20 mg/kg; iv; Male; F344/N
Rat [16] = settings: 4 h; dosed: Oxymetholone; 20 mg/kg; iv; Male; F344/N
Rat [17] = settings: 1 h; dosed: Oxymetholone; 120 mg/kg; oral; Male; F344/N
Rat [18] = settings: 2 h; dosed: Oxymetholone; 20 mg/kg; iv; Male; F344/N
Rat [19] = settings: 5 min; dosed: Oxymetholone; 20 mg/kg; iv; Male; F344/N; remark: listed apart in the source
Rat [20] = settings: 10 min; dosed: Oxymetholone; 20 mg/kg; iv; Male; F344/N
Rat [21] = settings: 10 min; dosed: Oxymetholone; 20 mg/kg; iv; Male; F344/N; remark: listed apart in the source
Rat [22] = settings: 1 h; dosed: Oxymetholone; 20 mg/kg; iv; Male; F344/N; remark: listed apart in the source
Rat [23] = settings: 2 h; dosed: Oxymetholone; 120 mg/kg; oral; Male; F344/N
Rat [24] = settings: 2 h; dosed: Oxymetholone; 30 mg/kg; oral; Male; F344/N; remark: listed apart in the source
Rat [25] = settings: 2 h; dosed: Oxymetholone; 120 mg/kg; oral; Female; F344/N
Rat [26] = settings: 3 h; dosed: Oxymetholone; 120 mg/kg; oral; Male; F344/N; remark: listed apart in the source
Rat [27] = settings: 0.5 h; dosed: Oxymetholone; 20 mg/kg; iv; Male; F344/N; remark: listed apart in the source
Rat [28] = settings: 8 h; dosed: Oxymetholone; 120 mg/kg; oral; Male; F344/N; remark: listed apart in the source
Rat [29] = settings: 2 h; dosed: Oxymetholone; 120 mg/kg; oral; Male; F344/N; remark: listed apart in the source
Rat [30] = settings: dosed: Oxymetholone, F344/N
Rat [31] = settings: 5 h; dosed: Oxymetholone; 120 mg/kg; oral; Male; F344/N
Rat [32] = settings: 2 h; dosed: Oxymetholone; 30 mg/kg; oral; Female; F344/N
Rat [33] = settings: 2 h; dosed: Oxymetholone; 30 mg/kg; oral; Female; F344/N; remark: listed apart in the source
Rat [34] = settings: 1 h; dosed: Oxymetholone; 120 mg/kg; oral; Male; F344/N; remark: listed apart in the source
Rat [35] = settings: 2 h; dosed: Oxymetholone; 20 mg/kg; iv; Male; F344/N; remark: listed apart in the source
Rat [36] = settings: 12 h; dosed: Oxymetholone; 120 mg/kg; oral; Male; F344/N
Rat [37] = settings: 10 min; dosed: Oxymetholone; 120 mg/kg; oral; Male; F344/N; remark: listed apart in the source
Rat [38] = settings: 6 h; dosed: Oxymetholone; 120 mg/kg; oral; Male; F344/N
Rat [39] = settings: 2 h; dosed: Oxymetholone; 120 mg/kg; oral; Female; F344/N; remark: listed apart in the source
Rat [40] = settings: 20 min; dosed: Oxymetholone; 20 mg/kg; iv; Male; F344/N; remark: listed apart in the source

C[C@]12C/C(=C/O)C(=O)C[C@@H]1CC[C@@H]1[C@@H]2CC[C@@]2(C)[C@H]1CC[C@]2(C)O [Oxymetholone]
Settings	concentration in plasma [ng/mL]
Rat [1]	203
Rat [2]	910
Rat [3]	881
Rat [4]	2210
Rat [5]	875
Rat [6]	641
Rat [7]	316
Rat [8]	1070
Rat [9]	675
Rat [10]	629
Rat [11]	733
Rat [12]	466
Rat [13]	319
Rat [14]	2190
Rat [15]	20300
Rat [16]	376
Rat [17]	739
Rat [18]	914
Rat [19]	14400
Rat [20]	8040
Rat [21]	6510
Rat [22]	1490
Rat [23]	1610
Rat [24]	711
Rat [25]	918
Rat [26]	1080
Rat [27]	1720
Rat [28]	339
Rat [29]	1330
Rat [31]	600
Rat [32]	231
Rat [33]	276
Rat [34]	952
Rat [35]	846
Rat [36]	255
Rat [37]	666
Rat [38]	462
Rat [39]	1020
Rat [40]	3010

concentration in plasma [ng/mL], Rat [30]
Settings	Female	Male
0.5 h, 20 mg/kg, iv	–	2070
1 h, 20 mg/kg, iv	–	1210
1 h, 120 mg/kg, oral	–	999
1.5 h, 120 mg/kg, oral	–	616
2 h, 20 mg/kg, iv	–	619
2 h, 30 mg/kg, oral	266	875
2 h, 120 mg/kg, oral	687	1130
3 h, 120 mg/kg, oral	–	925
4 h, 20 mg/kg, iv	–	496
4 h, 30 mg/kg, oral	–	427
4 h, 120 mg/kg, oral	–	977
5 h, 120 mg/kg, oral	–	527
5 min, 20 mg/kg, iv	–	20600
6 h, 120 mg/kg, oral	–	806
8 h, 120 mg/kg, oral	–	428
10 min, 20 mg/kg, iv	–	5510
10 min, 120 mg/kg, oral	–	626
12 h, 120 mg/kg, oral	–	208
20 min, 20 mg/kg, iv	–	4270
20 min, 120 mg/kg, oral	–	788
40 min, 30 mg/kg, oral	–	564
40 min, 120 mg/kg, oral	–	684
